Among the targets are Carbonic anhydrase 9 (Homo sapiens, UniProt Q16790); Carbonic anhydrase 3 (Homo sapiens, UniProt P07451); Carbonic anhydrase 1 (Homo sapiens, UniProt P00915); Carbonic anhydrase 12 (Homo sapiens, UniProt O43570); Carbonic anhydrase 13 (Homo sapiens, UniProt Q8N1Q1).
Another assay deals with Carbonic anhydrase 2 (Homo sapiens, UniProt P00918). Kind of assay: Inhibition of human CA2 cytosolic isoform preincubated for 15 mins by stopped-flow CO2 hydration method.
In another assay the target is Carbonic anhydrase 7 (Homo sapiens, UniProt P43166). In words: Inhibition of human CA7 preincubated for 15 mins by stopped-flow CO2 hydration method.
Carbonic anhydrase 7, sequence (P43166 whole entry): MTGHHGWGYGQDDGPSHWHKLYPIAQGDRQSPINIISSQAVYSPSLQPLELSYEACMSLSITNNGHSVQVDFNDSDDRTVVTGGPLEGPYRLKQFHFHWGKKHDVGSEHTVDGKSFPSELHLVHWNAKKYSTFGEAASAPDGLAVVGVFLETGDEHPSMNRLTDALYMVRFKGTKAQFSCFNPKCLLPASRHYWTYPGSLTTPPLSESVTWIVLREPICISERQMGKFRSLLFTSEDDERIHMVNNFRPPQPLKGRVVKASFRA

Carbonic anhydrase 3, sequence (P07451 whole entry, canonical isoform): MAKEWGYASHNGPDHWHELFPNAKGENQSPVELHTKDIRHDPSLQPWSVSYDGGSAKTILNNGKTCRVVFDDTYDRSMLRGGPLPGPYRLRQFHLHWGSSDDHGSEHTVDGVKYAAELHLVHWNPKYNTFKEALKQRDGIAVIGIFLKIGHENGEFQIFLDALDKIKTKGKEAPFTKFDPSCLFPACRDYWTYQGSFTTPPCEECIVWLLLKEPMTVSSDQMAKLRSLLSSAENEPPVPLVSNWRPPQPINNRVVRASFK
Carbonic anhydrase 13, sequence (Q8N1Q1 whole entry, canonical isoform): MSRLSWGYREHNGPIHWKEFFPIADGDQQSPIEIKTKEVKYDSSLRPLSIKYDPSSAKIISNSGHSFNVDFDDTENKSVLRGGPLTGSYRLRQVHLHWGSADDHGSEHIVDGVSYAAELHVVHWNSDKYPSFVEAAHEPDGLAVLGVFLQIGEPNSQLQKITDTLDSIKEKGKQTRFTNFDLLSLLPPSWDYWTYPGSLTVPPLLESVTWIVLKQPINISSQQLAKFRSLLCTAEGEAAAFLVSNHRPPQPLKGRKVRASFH
Carbonic anhydrase 12, sequence (O43570 whole entry, canonical isoform): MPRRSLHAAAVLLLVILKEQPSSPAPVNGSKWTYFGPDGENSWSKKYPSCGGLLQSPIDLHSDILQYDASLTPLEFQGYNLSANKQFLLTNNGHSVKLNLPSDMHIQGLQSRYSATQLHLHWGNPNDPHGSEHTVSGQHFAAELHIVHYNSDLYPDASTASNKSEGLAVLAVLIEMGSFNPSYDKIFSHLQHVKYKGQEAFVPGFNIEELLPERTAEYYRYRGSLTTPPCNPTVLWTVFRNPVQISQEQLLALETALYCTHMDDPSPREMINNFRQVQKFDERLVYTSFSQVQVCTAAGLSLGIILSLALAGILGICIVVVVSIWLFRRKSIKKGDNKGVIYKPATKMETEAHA
Carbonic anhydrase 1, sequence (P00915 whole entry, canonical isoform): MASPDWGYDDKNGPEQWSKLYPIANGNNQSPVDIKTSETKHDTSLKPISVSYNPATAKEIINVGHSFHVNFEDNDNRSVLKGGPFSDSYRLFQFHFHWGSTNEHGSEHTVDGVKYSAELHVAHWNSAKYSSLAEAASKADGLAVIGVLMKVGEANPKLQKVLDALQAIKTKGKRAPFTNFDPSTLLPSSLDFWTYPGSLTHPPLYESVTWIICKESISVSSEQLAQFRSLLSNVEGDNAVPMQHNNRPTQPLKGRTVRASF

Take `Nc1ccc(S(N)(=O)=O)nc1`: the Ki (in general, the dissociation constant of the complex between target and ligand, obtained from inhibition or displacement) at Carbonic anhydrase 9 is 0.279 µM; at Carbonic anhydrase 2, 0.253 µM; at Carbonic anhydrase 3, above 100 µM; at Carbonic anhydrase 7, 0.135 µM; at Carbonic anhydrase 1, 24.7 µM; at Carbonic anhydrase 12 it was 0.114 µM.
Regarding `Cc1ccc(S(=O)(=O)NC(=O)Nc2ccc(S(N)(=O)=O)nc2)cc1`, the figures for the Ki on Carbonic anhydrase 3 and at Carbonic anhydrase 7 were above 100 µM and 0.03 µM, respectively.
For `Cc1ccc(S(=O)(=O)NC(=O)Nc2ccc(S(N)(=O)=O)cc2)cc1`, the values for the Ki on Carbonic anhydrase 3 and at Carbonic anhydrase 7 were above 100 µM and 0.0064 µM, respectively.
In the case of `Nc1ccc(S(N)(=O)=O)cc1` [SULFANILAMIDE], the results for the Ki at Carbonic anhydrase 3 and on Carbonic anhydrase 13 were above 100 µM and 0.035 µM, respectively.

The values are drawn from ChEMBL document CHEMBL3098114, “Combining the tail and the ring approaches for obtaining potent and isoform-selective carbonic anhydrase inhibitors: solution and X-ray crystallographic studies” (Bioorg Med Chem, 2014).
